Results published in patent US12077503B2, “Substituted cyclic amides and their use as herbicides” (FMC CORPORATION, priority 2015, dated 2024).
Where two headings read alike, the source gives them in different places.

What was measured:
Test in all cases: Test A preemergence
Assay type in all cases: in vivo
[1] = test system: pigweed (Amaranthus retroflexus); details: Amaranthus retroflexus, pre-emergence, 240 h; for pest or weed control at 125 g/ha: 125 g ai/ha; for pest or weed control at 500 g/ha: 500 g ai/ha
[2] = test system: ryegrass, Italian (Italian ryegrass, Lolium multiflorum); details: Lolium multiflorum, pre-emergence, 240 h; for pest or weed control at 500 g/ha: 500 g ai/ha; for pest or weed control at 125 g/ha: 125 g ai/ha
In short: (§1)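 Ratings of 0 (no effect) to 100 (complete control) come from visual comparison with untreated controls roughly 10 d after treatment. Test chemicals, formulated in a non-phytotoxic solvent mixture with surfactant, were applied either as a preemergence directed soil spray on seeded soil or postemergence to one- to two-leaf plants 2 to 10 cm tall.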

[3] = test system: giant foxtail (Setaria faberii); details: Setaria faberi, pre-emergence, 240 h; for pest or weed control at 125 g/ha: 125 g ai/ha; for pest or weed control at 500 g/ha: 500 g ai/ha
In short: as §1

Kochia (Kochia scoparia) = details: Bassia scoparia, pre-emergence, 240 h; for pest or weed control at 125 g/ha: 125 g ai/ha; for pest or weed control at 500 g/ha: 500 g ai/ha
In short: as §1

[4] = test system: ragweed (common ragweed, Ambrosia elatior); details: Ambrosia artemisiifolia, pre-emergence, 240 h; for pest or weed control at 500 g/ha: 500 g ai/ha; for pest or weed control at 125 g/ha: 125 g ai/ha
In short: as §1

[5] = preemergence, 0 to 100 scale where 0 is no effect and 100 is complete control, read-out: Pigweed plant response rating
[6] = preemergence, visual injury rating about 10 d after treatment, 0 to 100 scale (0 no effect, 100 complete control), read-out: Pigweed plant response rating
[7] = preemergence, visual injury rating about 10 d after treatment, 0 to 100 scale (0 no effect, 100 complete control), read-out: Ryegrass, Italian plant response rating
[8] = preemergence, 0 to 100 scale where 0 is no effect and 100 is complete control, read-out: Foxtail, Giant plant response rating
[9] = preemergence, visual injury rating about 10 d after treatment, 0 to 100 scale (0 no effect, 100 complete control), read-out: Foxtail, Giant plant response rating
[10] = preemergence, 0 to 100 scale where 0 is no effect and 100 is complete control, read-out: Kochia plant response rating
[11] = preemergence, visual injury rating about 10 d after treatment, 0 to 100 scale (0 no effect, 100 complete control), read-out: Kochia plant response rating
[12] = preemergence, visual injury rating about 10 d after treatment, 0 to 100 scale (0 no effect, 100 complete control), read-out: Ragweed plant response rating
[13] = Preemergence, visual injury vs untreated controls after approximately 10 d, read-out: Pigweed plant response rating (0 to 100 scale where 0 is no effect and 100 is complete control)
[14] = preemergence, 0 to 100 scale where 0 is no effect and 100 is complete control, read-out: Ryegrass, Italian plant response rating
[15] = Preemergence, visual injury vs untreated controls after approximately 10 d, read-out: Ryegrass, Italian plant response rating (0 to 100 scale where 0 is no effect and 100 is complete control)
[16] = Preemergence, visual injury vs untreated controls after approximately 10 d, read-out: Foxtail, Giant plant response rating (0 to 100 scale where 0 is no effect and 100 is complete control)
[17] = Preemergence, visual injury vs untreated controls after approximately 10 d, read-out: Kochia plant response rating (0 to 100 scale where 0 is no effect and 100 is complete control)
[18] = preemergence, 0 to 100 scale where 0 is no effect and 100 is complete control, read-out: Ragweed plant response rating
[19] = Preemergence, visual injury vs untreated controls after approximately 10 d, read-out: Ragweed plant response rating (0 to 100 scale where 0 is no effect and 100 is complete control)
[20] = preemergence, 0 to 100 scale where 0 is no effect and 100 is complete control, approx. 10 d, read-out: Pigweed plant response rating
[21] = preemergence, 0 to 100 scale where 0 is no effect and 100 is complete control, approx. 10 d, read-out: Ryegrass, Italian plant response rating
[22] = preemergence, 0 to 100 scale where 0 is no effect and 100 is complete control, approx. 10 d, read-out: Foxtail, Giant plant response rating
[23] = preemergence, 0 to 100 scale where 0 is no effect and 100 is complete control, approx. 10 d, read-out: Kochia plant response rating
[24] = preemergence, 0 to 100 scale where 0 is no effect and 100 is complete control, approx. 10 d, read-out: Ragweed plant response rating
[25] = Preemergence, visual injury rating after approximately 10 d, read-out: Pigweed plant response rating (0 to 100 scale, 0 is no effect, 100 is complete control)
[26] = Preemergence, visual injury rating after approximately 10 d, read-out: Ryegrass, Italian plant response rating (0 to 100 scale, 0 is no effect, 100 is complete control)
[27] = Preemergence, visual injury rating after approximately 10 d, read-out: Foxtail, Giant plant response rating (0 to 100 scale, 0 is no effect, 100 is complete control)
[28] = Preemergence, visual injury rating after approximately 10 d, read-out: Kochia plant response rating (0 to 100 scale, 0 is no effect, 100 is complete control)
[29] = Preemergence, visual injury rating after approximately 10 d, read-out: Ragweed plant response rating (0 to 100 scale, 0 is no effect, 100 is complete control)

| SMILES | pest or weed control at 125 g/ha [1, 5] [%] | pest or weed control at 500 g/ha [1, 6] [%] | pest or weed control at 500 g/ha [2, 7] [%] | pest or weed control at 125 g/ha [3, 8] [%] | pest or weed control at 500 g/ha [3, 9] [%] | pest or weed control at 125 g/ha (Kochia (Kochia scoparia); [10]) [%] | pest or weed control at 500 g/ha [1, 13] [%] | pest or weed control at 125 g/ha [2, 14] [%] | pest or weed control at 500 g/ha [2, 15] [%] | pest or weed control at 500 g/ha [3, 16] [%] | pest or weed control at 500 g/ha (Kochia (Kochia scoparia); [17]) [%] | pest or weed control at 125 g/ha [4, 18] [%] | pest or weed control at 500 g/ha [4, 19] [%] | other results |
| --- | --- | --- | --- | --- | --- | --- | --- | --- | --- | --- | --- | --- | --- | --- |
| Cc1cc([C@H]2CN(C)C(=O)[C@@H]2C(=O)Nc2ccc(F)cc2F)ccc1Cl [Compound 930] | 20 | 30 | 70 | 90 | 90 | 70 |  |  |  |  |  |  |  | pest or weed control at 500 g/ha (Kochia (Kochia scoparia); [11]): 90%; pest or weed control at 500 g/ha [4, 12]: 0% |
| CN1C[C@H](c2cccc(C3CC3)c2)[C@@H](C(=O)Nc2ccc(F)cc2F)C1=O [Compound 818] | 20 |  |  | 90 |  | 70 | 60 | 60 | 90 | 100 | 80 | 0 | 0 |  |
| CN1C[C@H](c2cccc(F)c2)[C@@H](C(=O)Nc2ccccc2C(F)(F)F)C1=O [Compound 823] | 0 |  |  | 100 |  | 0 | 50 | 30 | 60 | 100 | 70 | 0 | 40 |  |
| CCc1cc(CC)cc([C@H]2CNC(=O)[C@@H]2C(=O)Nc2ccccc2F)c1 [Compound 1138] |  |  |  |  |  |  |  |  |  |  |  |  |  | pest or weed control at 125 g/ha [1, 20]: 0%; pest or weed control at 500 g/ha [1, 5]: 0%; pest or weed control at 125 g/ha [2, 21]: 30%; pest or weed control at 500 g/ha [2, 14]: 50%; pest or weed control at 125 g/ha [3, 22]: 90%; pest or weed control at 500 g/ha [3, 8]: 90%; pest or weed control at 125 g/ha (Kochia (Kochia scoparia); [23]): 0%; pest or weed control at 500 g/ha (Kochia (Kochia scoparia); [10]): 80%; pest or weed control at 125 g/ha [4, 24]: 0%; pest or weed control at 500 g/ha [4, 18]: 0% |
| CN1C[C@H](c2csc(C(F)F)c2)[C@@H](C(=O)Nc2cccc(F)c2F)C1=O [Compound 1122] |  |  |  |  |  |  |  |  |  |  |  |  |  | pest or weed control at 125 g/ha [1, 20]: 30%; pest or weed control at 500 g/ha [1, 5]: 70%; pest or weed control at 125 g/ha [2, 21]: 70%; pest or weed control at 500 g/ha [2, 14]: 90%; pest or weed control at 125 g/ha [3, 22]: 90%; pest or weed control at 500 g/ha [3, 8]: 90%; pest or weed control at 125 g/ha (Kochia (Kochia scoparia); [23]): 60%; pest or weed control at 500 g/ha (Kochia (Kochia scoparia); [10]): 70%; pest or weed control at 125 g/ha [4, 24]: 70%; pest or weed control at 500 g/ha [4, 18]: 80% |
| Cc1cc([C@H]2CNC(=O)[C@@H]2C(=O)Nc2ccccc2S(C)(=O)=O)ccc1C(F)(F)F [Compound 1041] |  | 20 | 0 |  | 90 |  |  |  |  |  |  |  |  | pest or weed control at 125 g/ha [1, 25]: 0%; pest or weed control at 125 g/ha [2, 26]: 0%; pest or weed control at 125 g/ha [3, 27]: 80%; pest or weed control at 125 g/ha (Kochia (Kochia scoparia); [28]): 30%; pest or weed control at 125 g/ha [4, 29]: 20% |
| CSc1ccccc1NC(=O)[C@H]1C(=O)N(C)C[C@@H]1c1cc(F)c(F)c(F)c1 [Compound 866] | 0 |  |  | 90 |  | 20 | 50 | 50 | 70 | 90 | 80 | 0 | 30 |  |
| CN1CC[C@H](c2cccc(Cl)c2)[C@@H](C(=O)Nc2cccc(F)c2F)C1=O [Compound 921] | 0 |  |  | 90 |  | 0 | 0 | 50 | 60 | 100 | 30 | 0 | 0 |  |
| O=C(Nc1ccccc1F)[C@H]1C(=O)N(C2CC2)CC[C@@H]1c1ccccc1 [Compound 1031] |  | 0 | 0 |  | 0 |  |  |  |  |  |  |  |  | pest or weed control at 125 g/ha [1, 25]: 0%; pest or weed control at 125 g/ha [2, 26]: 0%; pest or weed control at 125 g/ha [3, 27]: 0%; pest or weed control at 125 g/ha (Kochia (Kochia scoparia); [28]): 0%; pest or weed control at 500 g/ha (Kochia (Kochia scoparia); [11]): 0%; pest or weed control at 125 g/ha [4, 29]: 0%; pest or weed control at 500 g/ha [4, 12]: 0% |
| COc1ccc([C@H]2CN(C)C(=O)[C@@H]2C(=O)Nc2ccccc2SC)cc1OC [Compound 854] | 0 |  |  | 50 |  | 0 | 0 | 0 | 0 | 80 | 0 | 0 | 0 |  |
| Cc1ccc([C@H]2CNC(=O)[C@@H]2C(=O)Nc2ccccc2F)cc1C [Compound 1033] |  | 0 | 50 |  | 90 |  |  |  |  |  |  |  |  | pest or weed control at 125 g/ha [1, 25]: 0%; pest or weed control at 125 g/ha [2, 26]: 0%; pest or weed control at 125 g/ha [3, 27]: 70%; pest or weed control at 125 g/ha (Kochia (Kochia scoparia); [28]): 0%; pest or weed control at 500 g/ha (Kochia (Kochia scoparia); [11]): 60%; pest or weed control at 125 g/ha [4, 29]: 0%; pest or weed control at 500 g/ha [4, 12]: 10% |
